{
  "source": "paper PMC3081663",
  "about": "(Journal of Natural Products, 2011)",
  "key": {"[1]": {"system": "cell lines in which MDR1 was overexpressed", "settings": "MDR1 overexpressed by drug selection or transfection; cited from earlier work"}, "panel of cell lines": {"system": "panel of cell lines", "assay": "Cytotoxicity in a panel of cell lines", "type": "cell-based"}, "[2]": {"system": "human colon carcinoma cell line LS174T", "settings": "LS174T subcutaneously implanted in nude mice; cited from earlier work"}, "[3]": {"system": "phosphorylation of histone H2AX in HCT-15 cells", "assay": "In-cell Western assay for phosphorylation of histone H2AX", "type": "cell-based", "settings": "4 h of drug treatment"}, "supercoiled plasmid DNA": {"system": "supercoiled plasmid DNA", "assay": "In vitro DNA damage assay", "type": "biochemical"}, "MDR1/MRP in HCT-15 cells": {"system": "MDR1/MRP in HCT-15 cells", "type": "cell-based"}, "MCF-7": {"system": "MCF-7", "settings": "MCF7 cells, 72 h treatment"}, "[4]": {"system": "phosphorylation of histone H2AX in MCF7 cells", "assay": "In-cell Western assay for phosphorylation of histone H2AX", "type": "cell-based", "settings": "4 h"}},
  "data": [
    {"molecule": "CC(C)(O)CCc1ccc(O)c2c(=O)c3c(O)c4c(cc3oc12)O[C@H]1OC=C[C@@]41O", "note": "[austocystin D]", "values": [
      {"measurement": "fold more potent in cell lines in which MDR1 was overexpressed", "setting": "[1]", "result": 20, "unit": "fold"},
      {"measurement": "GI50", "setting": "panel of cell lines; 72 h, read-out: GI50 values for three cell lines", "result": "< 10", "unit": "nM"},
      {"measurement": "selectivity between sensitive and resistant cell lines", "setting": "panel of cell lines; 72 h cytotoxicity panel", "result": "over 1000 fold"},
      {"measurement": "tumor growth in vivo", "setting": "[2]", "result": "inhibited the growth"},
      {"measurement": "induction of phosphorylation of histone H2AX", "setting": "[3]", "result": "induced the phosphorylation of histone H2AX"},
      {"measurement": "requirement for increased nicked DNA", "setting": "supercoiled plasmid DNA; 1 μM austocystin D with different additives", "result": "only in the presence of both liver microsomes and the NADPH regenerating system"},
      {"measurement": "concentration causing direct DNA damage (nicking of supercoiled plasmid DNA)", "setting": "supercoiled plasmid DNA; human liver microsomes and NADPH regenerating system, 4 h, 37 °C", "result": 100, "unit": "nM"},
      {"measurement": "inhibition of calcein-AM efflux (retention of calcein)", "setting": "MDR1/MRP in HCT-15 cells", "result": "inhibited efflux of calcein-AM"}
    ]},
    {"molecule": "CC[C@@]1(O)C(=O)OCc2c1cc1n(c2=O)Cc2cc3ccccc3nc2-1", "note": "[camptothecin]", "values": [
      {"measurement": "induction of phosphorylation of histone H2AX", "setting": "[3]", "result": "induced dose-dependent phosphorylation of histone H2AX"}
    ]},
    {"molecule": "CC(C)(O)CCc1ccc(O)c2c(=O)c3c(O)c4c(cc3oc12)O[C@H]1OCC[C@@]41O", "note": "[dihydro-austocystin D]", "values": [
      {"measurement": "cytotoxicity (growth inhibition)", "setting": "MCF-7", "result": "very weak"},
      {"measurement": "induction of the DNA damage response (phosphorylation of histone H2AX)", "setting": "[4]", "result": "very weak"}
    ]},
    {"molecule": "COc1cccc2c1C(=O)c1c(O)c3c(c(O)c1C2=O)C[C@@](O)(C(=O)CO)C[C@@H]3O[C@H]1C[C@H](N)[C@H](O)[C@H](C)O1", "note": "[doxorubicin]", "values": [
      {"measurement": "induction of phosphorylation of histone H2AX", "setting": "[3]", "result": "induced dose-dependent phosphorylation of histone H2AX"}
    ]},
    {"molecule": "CC(=O)N1CCN(c2ccc(OCC3COC(Cn4ccnc4)(c4ccc(Cl)cc4Cl)O3)cc2)CC1", "note": "(centres unmarked) [ketoconazole]", "values": [
      {"measurement": "effect on austocystin D cytotoxicity", "setting": "HCT-15", "result": "fully prevented"}
    ]},
    {"molecule": "bleomycin", "values": [
      {"measurement": "induction of phosphorylation of histone H2AX", "setting": "[3]", "result": "induced dose-dependent phosphorylation of histone H2AX"}
    ]}
  ]
}
